Source: US20180296530A1, “METHOD FOR TREATING ATOPIC DERMATITIS” (priority 2015, published 2018)

Key:
[1] = system: serum total IgE and allergen-specific IgE; assay: Clinical trial: serum total and allergen-specific IgE (ImmunoCAP); type: in vivo, human
[2] = system: DNCB-induced AD mouse model; assay: Example 5: dermatitis severity, topical melatonin in DNCB-induced AD mouse model; type: in vivo, Balb/c mice
Description: Four- to six-week-old Balb/c mice were maintained under specific pathogen-free conditions. Animals were housed in an air-conditioned animal room (25±1° C.; relative humidity 40±5%) and were fed a laboratory diet and distilled water. Animal care and handling protocols were approved by the Animal Committee of the College of Medicine, Taiwan University, and all procedures were conducted in accordance with the U.S. National Institute of Health guidelines.
The protocol for establishing an AD mouse model in this Example was modified from those described previously. Briefly, referring to FIG. 4, DNCB-induced AD mouse model was prepared by the repeated applications of 20 μL of 1% DNCB in acetone/olive oil (4:1) to the outer and inner surfaces of mouse ears and 100 μL of the same solution to the shaved back skin once on days 1, 2, and 3. Mice of Control group were treated with the identical volumes of vehicle. […]
Macroscopic assessment of the severity of dermatitis was determined by a scoring method as described previously. Briefly, the degree of each sign were scored as 0 (none), 1 (mild), 2 (moderate), and 3 (severe). […] Ear thickness was measured with a thickness gauge (Digimatic Indicator, Mitsutoyo, Tokyo). […]

[3] = system: DNCB-induced AD mouse model; assay: Example 5: histological examination of skin (H&E, toluidine blue, anti-CD3); type: in vivo, Balb/c mice; settings: for Cumulative histological scores: positive control 14.8 ± 2.4; for Hyperplasia, epidermis and follicular epithelium, slight to moderate/severe: incidence / Hyperplasia, sebaceous gland and hair follicle, dermis and subcutis, slight to moderate: incidence / Inflammation, neutrophil, lymphocyte and mast cell, epidermis, dermis and subcutis, minimal to severe/high: incidence / Infundibular hyperkeratosis, hair follicle, dermis, minimal to slight: incidence / Necrosis, epidermis, slight: incidence / Pustule, epidermis, slight: incidence / Serocellular crust/parakeratosis, epidermis, slight: incidence / Vacuolization, epidermis, minimal to slight: incidence: skin, Day 20, 5 mice
Description: The protocol for establishing an AD mouse model in this Example was modified from those described previously. Briefly, referring to FIG. 4, DNCB-induced AD mouse model was prepared by the repeated applications of 20 μL of 1% DNCB in acetone/olive oil (4:1) to the outer and inner surfaces of mouse ears and 100 μL of the same solution to the shaved back skin once on days 1, 2, and 3. Mice of Control group were treated with the identical volumes of vehicle.
The DNCB-sensitized mice were randomly assigned to one of three groups: DNCB (Positive control), DNCB+3% topical melatonin (Treatment: low-dose), DNCB+5% topical melatonin (Treatment: high-dose). Each group (including Control group) consisted of 5 mice. From days 9 to 19, sensitized mice were challenged by applying 0.5% DNCB to the skin surfaces. For the two groups treated with topical melatonin groups, 0.3 mg of topical melatonin ointment (3% or 5% melatonin in Vaseline) was given together with DNCB during the challenge period. For DNCB group, 0.3 mg of Vaseline was given together with DNCB during the challenge period. For Control group, 0.3 mg of Vaseline was given from days 9 to 19. This experiment was ended at Day 20.
At the end of the experiment (Day 20), all the experimental animals were subjected to euthanization by carbon dioxide and the skin samples were collected for subsequent immunological and histological examinations. The skin of each mouse were fixed with 10% neutral-buffered formalin, and embedded in paraffin. Then, 4-μm-thick sections were cut and transferred onto slides. Deparaffinized skin sections were stained with hematoxylin and eosin (H&E) before they were examined at 200× magnification for evaluation of edema and polymorphonuclear leukocytes (PMN) number. To detect mast cell infiltration, deparaffinized skin sections were stained with toluidine blue. Polyclonal rabbit antibody against CD3 was used to stain T cells. The numbers of mast cells and T cells per 10 high power fields (HPF) were counted.
Further, degree of histopathological lesions of skin from each mouse was graded from one to five depending on severity: 1=minimal (<1%); 2=slight (1-25%); 3=moderate (26-50%); 4=moderate/severe (51-75%); and 5=severe/high (76-100%).

[4] = Treatment (high-dose): DNCB+5% topical melatonin, mean±SD, graded one to five
[5] = Treatment (high-dose): DNCB+5% topical melatonin
[6] = Treatment (low-dose): DNCB+3% topical melatonin, mean±SD, graded one to five
[7] = Treatment (low-dose): DNCB+3% topical melatonin

COc1ccc2[nH]cc(CCNC(C)=O)c2c1 [Melatonin, melatonin]
IgE level, After ([1]; after oral melatonin 3 mg/d at bedtime for 4 weeks, mean, serum): 2483.8 kU/L
IgE level, Difference ([1]; after vs before oral melatonin 3 mg/d, 4 weeks, mean): 108.4 kU/L
IgE level, Before ([1]; melatonin phase, before treatment, mean, serum): 2337.2 kU/L
effect on allergen-specific IgE levels to Derp, Derf, or S aureus enterotoxins A or B ([1]; melatonin vs placebo, P>0.05): no significant difference
effect on total IgE level ([1]; melatonin vs placebo, P>0.05): no significant difference
IgE level, Difference of Treatment Effect From the Linear Mixed-Effects Model, Mean ([1]; melatonin vs placebo, adjusted for age and sex): −113.6 kU/L
gross findings of dermatitis ([2]; DNCB-stimulated mice treated with melatonin, FIG. 5, less skin erythema, less skin excoriation, improved hair growth): dermatitis was improved
Dermatitis clinical score ([2]; after topical melatonin treatment, decreased from 12, total score 0 to 12, Day 20, concentration not given): 3
pathology scoring vs DNCB group ([3]; 3% melatonin, p=0.04): significant improvement
number of anti-CD3 positive cells per 10 HPF ([3]; 3% topical melatonin compared with DNCB group, p=0.03): significantly reduced
pathology scoring vs DNCB group ([3]; 5% melatonin, p=0.02): significant improvement
number of anti-CD3 positive cells per 10 HPF ([3]; 5% topical melatonin compared with DNCB group, p=0.0007): significantly reduced
Hyperplasia, epidermis and follicular epithelium, slight to moderate/severe: lesion score [3, 4]: 2.0 ± 0.0
Hyperplasia, sebaceous gland and hair follicle, dermis and subcutis, slight to moderate: lesion score [3, 4]: 2.4 ± 0.5
Inflammation, neutrophil, lymphocyte and mast cell, epidermis, dermis and subcutis, minimal to severe/high: lesion score [3, 4]: 3.8 ± 0.4
Necrosis, epidermis, slight: lesion score [3, 4]: 0.4 ± 0.9
Serocellular crust/parakeratosis, epidermis, slight: lesion score [3, 4]: 2.0 ± 0.0
Vacuolization, epidermis, minimal to slight: lesion score [3, 4]: 0.8 ± 0.4
Cumulative histological scores ([3]; Treatment (high-dose): DNCB+5% topical melatonin, mean±SD): 11.4 ± 1.1
Hyperplasia, epidermis and follicular epithelium, slight to moderate/severe: incidence [3, 5]: 5/5
Hyperplasia, sebaceous gland and hair follicle, dermis and subcutis, slight to moderate: incidence [3, 5]: 5/5
Inflammation, neutrophil, lymphocyte and mast cell, epidermis, dermis and subcutis, minimal to severe/high: incidence [3, 5]: 5/5
Infundibular hyperkeratosis, hair follicle, dermis, minimal to slight: incidence [3, 5]: 0
Necrosis, epidermis, slight: incidence [3, 5]: 1/5
Pustule, epidermis, slight: incidence [3, 5]: 0
Serocellular crust/parakeratosis, epidermis, slight: incidence [3, 5]: 5/5
Vacuolization, epidermis, minimal to slight: incidence [3, 5]: 4/5
Hyperplasia, epidermis and follicular epithelium, slight to moderate/severe: lesion score [3, 6]: 2.4 ± 0.5
Hyperplasia, sebaceous gland and hair follicle, dermis and subcutis, slight to moderate: lesion score [3, 6]: 2.0 ± 0.0
Inflammation, neutrophil, lymphocyte and mast cell, epidermis, dermis and subcutis, minimal to severe/high: lesion score [3, 6]: 3.8 ± 0.4
Infundibular hyperkeratosis, hair follicle, dermis, minimal to slight: lesion score [3, 6]: 0.8 ± 0.8
Serocellular crust/parakeratosis, epidermis, slight: lesion score [3, 6]: 2.0 ± 0.0
Vacuolization, epidermis, minimal to slight: lesion score [3, 6]: 0.6 ± 0.5
Cumulative histological scores ([3]; Treatment (low-dose): DNCB+3% topical melatonin, mean±SD): 11.6 ± 1.8
Hyperplasia, epidermis and follicular epithelium, slight to moderate/severe: incidence [3, 7]: 5/5
Hyperplasia, sebaceous gland and hair follicle, dermis and subcutis, slight to moderate: incidence [3, 7]: 5/5
Inflammation, neutrophil, lymphocyte and mast cell, epidermis, dermis and subcutis, minimal to severe/high: incidence [3, 7]: 5/5
Infundibular hyperkeratosis, hair follicle, dermis, minimal to slight: incidence [3, 7]: 3/5
Necrosis, epidermis, slight: incidence [3, 7]: 0
Pustule, epidermis, slight: incidence [3, 7]: 0
Serocellular crust/parakeratosis, epidermis, slight: incidence [3, 7]: 5/5
Vacuolization, epidermis, minimal to slight: incidence [3, 7]: 3/5
mast cell infiltration (toluidine blue) ([3]; after melatonin treatment, FIG. 8): decreased
H&E staining of the skin ([3]; both the 3% and 5% melatonin treatment group, FIG. 6): improved epidermal hyperplasia and less infiltration of lymphocytes
